Measurements from patent US20090143375A1, “Tricyclic Lactam Derivatives, Their Manufacture and Use as Pharmaceutical Agents” (F. HOFFMANN-LA ROCHE AG, priority 2005, published 2009).

Tests used:
Aurora A kinase = biological target: T1, Aurora A kinase (Homo sapiens, UniProt O14965); assay: IC50 determination for inhibitors of Aurora A kinase (ELISA, GST-Histone H3 substrate); type: biochemical; conditions: mutant Aur A kinase, 30 μM ATP, 40 minutes; read-out: IC50 Aurora A kinase inhibition
T1 sequence (O14965 1-403): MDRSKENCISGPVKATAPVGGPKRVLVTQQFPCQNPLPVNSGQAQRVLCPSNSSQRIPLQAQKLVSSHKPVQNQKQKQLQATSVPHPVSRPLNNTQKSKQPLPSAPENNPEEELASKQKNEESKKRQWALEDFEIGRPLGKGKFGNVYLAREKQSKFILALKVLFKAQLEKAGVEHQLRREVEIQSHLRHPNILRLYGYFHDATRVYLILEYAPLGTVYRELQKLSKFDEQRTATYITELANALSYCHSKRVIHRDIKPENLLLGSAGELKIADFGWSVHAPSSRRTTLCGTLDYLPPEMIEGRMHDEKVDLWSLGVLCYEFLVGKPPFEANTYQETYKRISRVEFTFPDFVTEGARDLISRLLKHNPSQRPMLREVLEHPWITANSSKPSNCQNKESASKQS
Method: IC50 Determination for Inhibitors of Aurora A Kinase Assay Principle
Aurora A is a serine threonine kinase involved in spindle assembly and chromosome segregation.
The assay is a typically ELISA-type assay where substrate (GST-Histone H3) is coupled to the assay-plate and is phosphorylated by the kinase. Phosphorylation is detected by a mouse anti-Phosphopeptid mAb and an HRP-labeled anti-mouse pAb. The assay is validated for IC50-determination.
Kinase activities were measured by Enzyme-Linked Immunosorbent Assay (ELISA): Maxisorp 384-well plates (Nunc) were coated with recombinant fusion protein comprising residues 1-15 of HistoneH3 fused to the N-terminus of Glutathione-S-Transferase. Plates were then blocked with a solution of 1 mg/mL I-block (Tropix cat# T2015—highly purified form of casein) in phosphate-buffered saline. […] After washing, substrate phosphorylation was detected by addition of anti-phospho-Histone H3 (Ser 10) 6G3 mAb (Cell Signaling cat #9706) and sheep anti-mouse pAb-HRP (Amersham cat# NA931V), followed by colorimetric development with TMB (3,3′,5,5′-tetramethylbenzidine from Kirkegaard & Perry Laboratories). After readout of the absorbance, IC50 values were calculated using a non-linear curve fit (XLfit software (ID Business Solution Ltd., Guilford, Surrey, UK))

HCT 116 cells = assay: CellTiter-Glo assay in HCT 116 cells (antiproliferative activity); type: cell-based; conditions: 120 h, HCT 116 cells (human colon carcinoma), 5 days incubation
Method: The CellTiter-Glo™ Luminescent Cell Viability Assay (Promega) is a homogeneous method of determining the number of viable cells in culture based on quantitation of the ATP present, which signals the presence of metabolically active cells.
HCT 116 cells (human colon carcinoma, ATCC-No. CCl-247) were cultivated in RPMI 1640 medium with GlutaMAX™ I (Invitrogen, Cat-No. 61870-010), 2.5% Fetal Calf Serum (FCS, Sigma Cat-No. F4135 (FBS)); 100 Units/ml penicillin/100 μg/ml streptomycin (=Pen/Strep from Invitrogen Cat. No. 15140). For the assay the cells were seeded in 384 well plates, 1000 cells per well, in the same medium. The next day the test compounds were added in various concentrations ranging from 30 μM to 0.0015 μM (10 concentrations, 1:3 diluted). After 5 days the CellTiter-Glo™ assay was done according to the instructions of the manufacturer (CellTiter-Glo™ Luminescent Cell Viability Assay, from Promega). In brief: the cell-plate was equilibrated to room temperature for approximately 30 minutes and than the CellTiter-Glo™ reagent was added. The contents were carefully mixed for 15 minutes to induce cell lysis. After 45 minutes the luminescent signal was measured in Victor 2, (scanning multiwell spectrophotometer, Wallac).
1st. day: • Medium: RPMI 1640 with GlutaMAX™ I (Invitrogen, Cat-Nr. 61870), 5% FCS (Sigma Cat.-No. F4135), Pen/Strep (Invitrogen, Cat No. 15140). • HCT116 (ATCC-No. CCl-247): 1000 cells in 60 μl per well of 384 well plate (Greiner 781098, μClear-plate white) • After seeding incubate plates 24 h at 37° C., 5% CO2 2nd. Day: Induction (Treatment with Compounds, 10 Concentrations):
In order to achieve a final concentration of 30 μM as highest concentration 3.5 μl of 10 mM compound stock solution were added directly to 163 μl media. Then step e) of the dilution procedure described below, was followed.
In order to achieve the second highest to the lowest concentrations, a serial dilution with dilution steps of 1:3 was followed according to the procedure (a-e) as described here below: • a) for the second highest concentration add 10 μl of 10 mM stock solution of compound to 20 μl dimethylsulfoxide (DMSO) • b) dilute 8×1:3 (always 10 μl to 20 μl DMSO) in this DMSO dilution row (results in 9 wells with concentrations from 3333.3 μM to 0.51 μM) • c) dilute each concentration 1:47.6 (3.5 μl compound dilution to 163 μl media) • e) add 10 μl of every concentration to 60 μl media in the cell plate resulting in final concentration of DMSO: 0.3% in every well and resulting in 10 final concentration of compounds ranging from 30 μM to 0.0015 μM. • Each compound is tested in triplicate. • Incubate 120 h (5 days) at 37° C., 5% CO2
• Add 30 μl CellTiter-Glo™ Reagent (prepared from CellTiter-Glo™ Buffer and CellTiter-Glo™ Substrate (lyophilized) purchased from Promega) per well, • shake 15 minutes at room temperature • incubate further 45 minutes at room temperature without shaking
• Victor 2 scanning multiwell spectrophotometer (Wallac), Luminescence mode (0.5 sec/read, 477 nm) • Determine IC50 using a non-linear curve fit (XLfit software (ID Business Solution Ltd., Guilford, Surrey, UK))

Compound	IC50 (Aurora A kinase)	IC50 (HCT 116 cells)
COCCN1C(=O)C(C)(C)c2cc3nc(-c4cc(C)[nH]n4)[nH]c3cc21 [Example 1, 5-(2-Methoxy-ethyl)-7,7-dimethyl-2-(5-methyl-1H-pyrazol-3-yl)-5,7-dihydro-3H-imidazo[4,5-f]indol-6-one]	80 nM	100 to 5000 nM
Cc1cc(-c2nc3cc4c(cc3[nH]2)C(C)(C)C(=O)N4CC#N)n[nH]1 [Example 2, [7,7-Dimethyl-2-(5-methyl-1H-pyrazol-3-yl)-6-oxo-6,7-dihydro-1H-imidazo[4,5-f]indol-5-yl]-acetonitrile]		100 to 5000 nM
C=CCN1C(=O)C(C)(C)c2cc3nc(-c4cc(C)[nH]n4)[nH]c3cc21 [Example 3, 5-Allyl-7,7-dimethyl-2-(5-methyl-1H-pyrazol-3-yl)-5,7-dihydro-3H-imidazo[4,5-f]indol-6-one]		100 to 5000 nM
CC1(C)C(=O)N(CCCN2CCOCC2)c2cc3nc(-c4cc(C(F)(F)F)n[nH]4)[nH]c3cc21 [Example 4, 7,7-Dimethyl-5-(3-morpholin-4-yl-propyl)-2-(5-trifluoromethyl-2H-pyrazol-3-yl)-5,7-dihydro-1H-imidazo[4,5-f]indol-6-one]		100 to 5000 nM
Cc1cc(-c2nc3cc4c(cc3[nH]2)C(C)(C)C(=O)N4CCCN2CCOCC2)[nH]n1 [Example 5, 7,7-Dimethyl-2-(5-methyl-2H-pyrazol-3-yl)-5-(3-morpholin-4-yl-propyl)-5,7-dihydro-1H-imidazo[4,5-f]indol-6-one]		100 to 5000 nM
CCCc1cc(-c2nc3cc4c(cc3[nH]2)C(C)(C)C(=O)N4CCCN2CCOCC2)[nH]n1 [Example 6, 7,7-Dimethyl-5-(3-morpholin-4-yl-propyl)-2-(5-propyl-2H-pyrazol-3-yl)-5,7-dihydro-1H-imidazo[4,5-f]indol-6-one]		1240 nM
Cc1cc(-c2nc3cc4c(cc3[nH]2)N(CC(=O)N2CCOCC2)C(=O)C4(C)C)n[nH]1 [Example 9, 7,7-Dimethyl-2-(5-methyl-1H-pyrazol-3-yl)-5-(2-morpholin-4-yl-2-oxo-ethyl)-5,7-dihydro-3H-imidazo[4,5-f]indol-6-one]		5830 nM
Cc1cc(-c2nc3cc4c(cc3[nH]2)N(CC(=O)Nc2ccc(F)cc2)C(=O)C4(C)C)n[nH]1 [Example 10, 2-[7,7-Dimethyl-2-(5-methyl-1H-pyrazol-3-yl)-6-oxo-6,7-dihydro-3H-imidazo[4,5-f]indol-5-yl]-N-(4-fluoro-phenyl)-acetamide]	40 nM	100 to 5000 nM
COc1cc(CNC(=O)CN2C(=O)C(C)(C)c3cc4nc(-c5cc(C)[nH]n5)[nH]c4cc32)cc(OC)c1 [Example 11, N-(3,5-Dimethoxy-benzyl)-2-[7,7-dimethyl-2-(5-methyl-1H-pyrazol-3-yl)-6-oxo-6,7-dihydro-3H-imidazo[4,5-f]indol-5-yl]-acetamide]		100 to 5000 nM
Cc1cc(-c2nc3cc4c(cc3[nH]2)N(CC(=O)NCc2ccc(F)cc2)C(=O)C4(C)C)n[nH]1 [Example 12, 2-[7,7-Dimethyl-2-(5-methyl-1H-pyrazol-3-yl)-6-oxo-6,7-dihydro-3H-imidazo[4,5-f]indol-5-yl]-N-(4-fluoro-benzyl)-acetamide]		100 to 5000 nM
CCN(CC)CCN1C(=O)C(C)(C)c2cc3nc(-c4cc(C)[nH]n4)[nH]c3cc21 [Example 13, 5-(2-Diethylamino-ethyl)-7,7-dimethyl-2-(5-methyl-1H-pyrazol-3-yl)-5,7-dihydro-3H-imidazo[4,5-f]indol-6-one]		100 to 5000 nM
Cc1cc(-c2nc3cc4c(cc3[nH]2)C(C)(C)C(=O)N4CCN)n[nH]1 [Example 14, 5-(2-Amino-ethyl)-7,7-dimethyl-2-(5-methyl-1H-pyrazol-3-yl)-5,7-dihydro-1H-imidazo[4,5-f]indol-6-one]		5000 to 15000 nM
